Columns and labels:
hCRTH2 receptor [1] = biological target: T1, hCRTH2 receptor (Homo sapiens (Human), UniProt Q9Y5Y4); experiment: Radioligand displacement assay in presence of human serum albumin (HSA); conditions: 3H-PGD2 2.5 nM, Binding-Buffer with 0.5% HSA instead of 0.1% BSA
Method: (§1) First, recombinant HEK293-hCRTH2 cells were detached from culture plates into 5 ml buffer A/plate (Buffer A: 5 mM Tris, 1 mM MgCl2-6H2O pH=7.4) using a rubber policeman. Cells were then transferred into centrifugation tubes and centrifuged for 5 min at 400 g. The cell pellet was resuspended in the same buffer and tubes were frozen at −80° C. Cells were thawed and membrane fragments were generated by homogenization using a polytron homogenizer (30 seconds). The membrane fragments were then centrifuged at 3000 g for 20 minutes and resuspended in buffer C (Buffer C: 75 mM Tris, 25 mM MgCl2, 250 mM Saccharose pH 7.4). Aliquots of membrane fragements were stored at −20° C.
(§2) Binding assay was performed in a final assay volume of 250 μl. First, 25 μl of test compound, previously diluted in Binding-Buffer (Binding-Buffer: 50 mM Tris-Base, 100 mM NaCl, 1 mM EDTA, 0.1% BSA (protease free), 0.01% NaN3, 10 mM MnCl2 pH 7.0) was placed into each well. After addition of 75 μl Binding-Buffer, 50 μl of the radioligand ^3H-PGD2 (at 2.5 nM (220.000 dpm/well) from ANAWA ART0662) was added to each well. Binding assay was started by addition of 100 μl CRTH2 membrane fragments, reaching a final concentration of 20 μg/well. For non-specific binding, PGD2 was added to the reaction mixture to […] final concentration. This assay mix was incubated for 90 minutes at room temperature and then filtered through a GF/C filter 96-well plate which was pre-soaked for 3 hours in 0.5% polyethyleneimine (PEI). The filter-wells were washed three times with ice cold Binding-Buffer. Then, 40 μl of Microscint-40 (Packard) was added to each well and the retained radioactivity quantified in a Topcount (Packard).
Radioligand Displacement Assay-Human Serum Albumin (HSA):
Radioligand displacement assay in presence of human serum albumin (HSA) was performed as described above, with following modifications. Binding-Buffer-HSA: Binding-buffer+0.5% Sigma Albumin from Human serum A1887 (instead of 0.1% BSA). A volume of 25 μl test compound, previously diluted in Binding-Buffer-HSA was placed into each well. After addition of 75 μl Binding-Buffer-HSA, 50 μl of ^3H-PGD2 (at 2.5 nM (220.000 dpm/well) from ANAWA ART0662) was added to each well. Remaining protocol was identical as described above.

hCRTH2 receptor [2] = biological target: T1, hCRTH2 receptor; experiment: hCRTH2 receptor membranes radioligand displacement assay (3H-PGD2); conditions: 3H-PGD2 2.5 nM, HEK293-hCRTH2 membranes, Binding-Buffer with 0.1% BSA
Method: Biological Assays: Preparation of hCRTH2 Receptor Membranes and Radioligand Displacement Assay:
as §1, §2

eosinophils = experiment: Eosinophil shape change assay with human plasma; format: cell-based; conditions: human polymorphonuclear cells, 50% human plasma, activated with 100 nM PGD2
Method: After obtaining informed consent, blood samples were drawn by venipuncture according to the protocol approved by the ethics committee of Basel, Switzerland. Polymorphonuclear leukocytes (containing eosinophils, basophils and neutrophils) were isolated using the Polymorphprep™ method (Axis-Shield). In brief, anticoagulated whole blood was layered onto a Polymorphprep gradient (density 1.113 g/ml) and centrifuged at 500 g for 30 min. The polymorphonuclear cell fraction was harvested and depleted for erythrocytes by hypotonic saline lysis.
The polymorphonuclear cells were resuspended in assay buffer (1×PBS with Ca^2+/Mg^2+ supplemented with 0.1% BSA, 10 mM HEPES, and 10 mM Glucose, pH 7.4) at 5×10^6 cells/ml and stained with anti-CD49d-APC ((APC=Allophycocyanin) for 1 hour at RT. Test compounds, at various concentrations, were preincubated 10 min in human plasma (anticoagulated with a thrombin inhibitor). Then, human plasma was added to the polymorphonuclear cells to 50% of final assay volume with polymorphonuclear cells at 4×10^6 cells/rd. After incubation for 10 minutes at 37° C., the polymorphonuclear cells were activated for 5 min at 37° C. by addition of PGD2 at 100 nM final concentration. Activation was stopped by addition of 0.5 ml paraformaldehyde (1%).
Immediately after fixation with paraformaldehyde, the samples were analyzed by FACSCanto flow cytometer (BD Biosciences) and target cells were identified by their forward-scatter (FSC) and side-scatter (SSC) characteristics. Eosinophils were identified by the anti-CD49d-APC signal and their characteristic side-scatter (SSC) profile. Shape change responses, indicative of eosinophil activation, were quantified as the percent of cells with an increased forward-scatter.

T1 sequence (Q9Y5Y4 whole entry, the tested form may be a part): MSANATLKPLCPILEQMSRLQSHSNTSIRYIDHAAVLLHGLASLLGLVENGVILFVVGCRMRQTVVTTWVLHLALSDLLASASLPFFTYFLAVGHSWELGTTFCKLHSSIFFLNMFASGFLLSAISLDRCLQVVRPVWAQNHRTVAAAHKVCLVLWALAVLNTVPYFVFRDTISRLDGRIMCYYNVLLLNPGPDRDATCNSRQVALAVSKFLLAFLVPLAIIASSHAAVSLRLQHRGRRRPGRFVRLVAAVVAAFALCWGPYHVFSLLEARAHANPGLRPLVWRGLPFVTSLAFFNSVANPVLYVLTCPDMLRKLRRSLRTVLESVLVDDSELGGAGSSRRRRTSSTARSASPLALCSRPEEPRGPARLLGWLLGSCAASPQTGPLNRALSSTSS

SMILES	IC50 (hCRTH2 receptor [1]) [µM]	IC50 (hCRTH2 receptor [2]) [µM]	IC50 (eosinophils; Eosinophil) [µM]	IC50 (eosinophils) [µM]
CN(c1nc2ccc(Cl)cc2s1)[C@H]1CCc2c(c3cc(F)ccc3n2CC(=O)O)C1 [Example 32, (3S)-2-(3-((6-chlorobenzo[d]thiazol-2-yl)(methyl)amino)-6-fluoro-3,4-dihydro-1H-carbazol-9(2H)-yl)acetic acid]	0.02	0.0067	0.033	–
CN(c1ncc(C2CC2)cn1)[C@H]1CCc2c(c3cc(F)ccc3n2CC(=O)O)C1 [Example 42, (3S)-2-(3-((5-cyclopropylpyrimidin-2-yl)(methyl)amino)-6-fluoro-3,4-dihydro-1H-carbazol-9(2H)-yl)acetic acid]	0.036	0.0022	0.019	–
O=C(O)Cn1c2c(c3cc(F)ccc31)C[C@@H](Nc1ncc(Cl)cn1)CC2 [Example 3, (3S)-2-(6-fluoro-3-((5-chloropyrimidin-2-yl)amino)-3,4-dihydro-1H-carbazol-9-(2H)-yl)acetic acid]	0.023	0.0046	–	0.041
CN(c1ncc(C(F)(F)F)cn1)[C@H]1CCc2c(c3cc(F)ccc3n2CC(=O)O)C1 [Example 11, (3S)-2-(6-fluoro-3-(methyl(5-(trifluoromethyl)pyrimidin-2-yl)amino)-3,4-dihydro-1H-carbazol-9(2H)-yl)acetic acid]	0.015	0.002	0.049	–
Cc1csc(N(C)C2CCc3c(c4cc(F)ccc4n3CC(=O)O)C2)n1 (stereo not drawn) [Example 45, 2-(6-fluoro-3-(methyl(4-methylthiazol-2-yl)amino)-3,4-dihydro-1H-carbazol-9(2H)-yl)acetic acid]	0.025	0.0097	0.414	–
CCN(c1ncc(Cl)cn1)[C@H]1CCc2c(c3cc(F)ccc3n2CC(=O)O)C1 [Example 24, (3S)-2-(3-((5-chloropyrimidin-2-yl)(ethyl)amino)-6-fluoro-3,4-dihydro-1H-carbazol-9(2H)-yl)acetic acid]	0.019	0.0017	0.037	–
O=C(O)Cn1c2c(c3cc(F)ccc31)C[C@H](Nc1ncc(Cl)cn1)CC2 [Example 4, (3R)-2-(6-fluoro-3-((5-chloropyrimidin-2-yl)amino)-3,4-dihydro-1H-carbazol-9-(2H)-yl)acetic acid]	0.027	0.013	–	0.722
CN(c1nc2ccccc2o1)[C@H]1CCc2c(c3cc(F)ccc3n2CC(=O)O)C1 [Example 19, (3S)-2-(3-(benzo[d]oxazol-2-yl(methyl)amino)-6-fluoro-3,4-dihydro-1H-carbazol-9(2H)-yl)acetic acid]	0.017	0.0073	0.031	–
CN(c1ncc2ccccc2n1)[C@H]1CCc2c(c3cc(F)ccc3n2CC(=O)O)C1 [Example 28, (3S)-2-(6-fluoro-3-(methyl(quinazolin-2-yl)amino)-3,4-dihydro-1H-carbazol-9(2H)-yl)acetic acid]	0.022	0.012	0.025	–
O=C(O)Cn1c2c(c3cc(F)ccc31)C[C@@H](Nc1ncc(F)cn1)CC2 [Example 1, (3S)-2-(6-fluoro-3-((5-fluoropyrimidin-2-yl)amino)-3,4-dihydro-1H-carbazol-9-(2H)-yl)acetic acid]	0.02	0.016	–	0.021
CN(c1nc2ccc(Cl)cc2o1)[C@H]1CCc2c(c3cc(F)ccc3n2CC(=O)O)C1 [Example 40, (3S)-2-(6-fluoro-3-((6-chlorobenzo[d]oxazol-2-yl)(methyl)amino)-3,4-dihydro-1H-carbazol-9(2H)-yl)acetic acid]	0.021	0.002	0.075	–
CN(c1ncccn1)[C@H]1CCc2c(c3cc(F)ccc3n2CC(=O)O)C1 [Example 15, (3S)-2-(6-fluoro-3-(methyl(pyrimidin-2-yl)amino)-3,4-dihydro-1H-carbazol-9(2H)-yl)acetic acid]	0.035	0.0099	0.066	–

These reach a lower IC50 (hCRTH2 receptor [1]). Values come first.

IC50 (hCRTH2 receptor [1]) [µM]	IC50 (hCRTH2 receptor [2]) [µM]	IC50 (eosinophils; Eosinophil) [µM]	IC50 (eosinophils) [µM]	SMILES
0.006	0.0017	0.014	–	O=C(O)Cn1c2c(c3cc(F)ccc31)C[C@@H](N(CC1CC1)c1ncc(Cl)cn1)CC2 [Example 27, (3S)-2-(3-((5-chloropyrimidin-2-yl)(cyclopropylmethyl)amino)-6-fluoro-3,4-dihydro-1H-carbazol-9(2H)-yl)acetic acid]
0.011	0.0027	0.015	–	CN(c1ncc(Cl)cn1)[C@H]1CCc2c(c3cc(F)ccc3n2CC(=O)O)C1 [Example 9, (3S)-2-(3-((5-chloropyrimidin-2-yl)(methyl)amino)-6-fluoro-3,4-dihydro-1H-carbazol-9(2H)-yl)acetic acid]
0.007	0.0025	0.008	–	CN(c1ncc(F)cn1)[C@H]1CCc2c(c3cc(F)ccc3n2CC(=O)O)C1 [Example 7, (3S)-2-(6-fluoro-3-((5-fluoropyrimidin-2-yl)(methyl)amino)-3,4-dihydro-1H-carbazol-9(2H)-yl)acetic acid]
0.012	0.0046	0.006	–	CN(c1nc2ccc(F)cc2o1)[C@H]1CCc2c(c3cc(F)ccc3n2CC(=O)O)C1 [Example 43, (3S)-2-(6-fluoro-3-((6-fluorobenzo[d]oxazol-2-yl)(methyl)amino)-3,4-dihydro-1H-carbazol-9(2H)-yl)acetic acid]
0.007	0.0041	0.004	–	CN(c1nc2cc(F)ccc2o1)[C@H]1CCc2c(c3cc(F)ccc3n2CC(=O)O)C1 [Example 29, (3S)-2-(6-fluoro-3-((5-fluorobenzo[d]oxazol-2-yl)(methyl)amino)-3,4-dihydro-1H-carbazol-9(2H)-yl)acetic acid]
0.008	0.01	0.046	–	CN(c1nc2cc(Cl)ccc2s1)[C@H]1CCc2c(c3cc(F)ccc3n2CC(=O)O)C1 [Example 33, (3S)-2-(3-((5-chlorobenzo[d]thiazol-2-yl)(methyl)amino)-6-fluoro-3,4-dihydro-1H-carbazol-9(2H)-yl)acetic acid]
